Experimental data from patent US6734301B2, “2,3,4,5-Tetrahydro-1H-[1,4]diazepino[1,7-a]indole compounds” (Pharmacia & Upjohn Company, priority 2000, dated 2004).
Where a name gives a salt, the structure may show the parent alone.

Structure (SMILES)	melting point [°C]
O=Cc1c2n(c3cc(Br)ccc13)CCNCC2	186 to 188
CN1CCc2cc3ccccc3n2CC1	59 to 60
CCN1CCc2cc3ccccc3n2CC1	44 to 46
NCCc1c2n(c3ccccc13)CCNCC2	77 to 80
COc1ccc(NC(=O)C(=O)c2c3n(c4ccccc24)CCNCC3)cc1	177 to 180
COc1ccc(NC(=O)C(=O)c2c3n(c4ccccc24)CCNCC3)cc1Cl	221 to 223
O=C(Nc1ccccc1)C(=O)c1c2n(c3ccccc13)CCNCC2	157 to 160
O=Cc1c2n(c3ccccc13)CCNCC2	167 to 168
NC(=O)C(=O)c1c2n(c3ccccc13)CCNCC2	214 to 215
O=C(c1c2n(c3ccccc13)CCNCC2)C(F)(F)F	131 to 133
O=C(Nc1ccc(F)cc1F)C(=O)c1c2n(c3ccccc13)CCNCC2	184.5 to 185.5
N#Cc1c2n(c3ccccc13)CCNCC2	161 to 164
CCCN1CCc2cc3ccccc3n2CC1 (as salt: hydrochloride)	257 to 259
Brc1ccc2cc3n(c2c1)CCNCC3 (as salt: hydrochloride)	292 to 295
Clc1c2n(c3ccccc13)CCNCC2 (as salt: hydrochloride)	> 250
CC(C)(C)OC(=O)N1CCc2cc3ccccc3n2CC1 [Example 51, tert-butyl 1,2,4,5-tetrahydro-3H-[1,4]diazepino[1,7-a]indole-3-carboxylate]	129 to 132
O=[N+]([O-])/C=C/c1c2n(c3ccccc13)CCNCC2 [Example 52, 11-[(E)-2-nitroethenyl]-2,3,4,5-tetrahydro-1H-[1,4]diazepino[1,7-a]indole]	225 to 226
